# According to ChEMBL document CHEMBL4706515, “Discovery of new [1,2,4] Triazolo[1,5-a]Pyrimidine derivatives that Kill gastric cancer cells via the mitochondria pathway” (Eur J Med Chem, 2020):
# The source made the active and inactive calls. The calls are words filed in the database; no cut-off is given here.
# Experiments:
# SGC-7901 [1] = assay: Induction of apoptosis in human SGC-7901 cells assessed as viable cells at 1.25 uM measure after 24 hrs by Annexin-PI staining based Flowcytometry method (reference value: 94.9%); type: functional; settings: read-out: Activity
# MGC-803 [2] = assay: Induction of mitochondrial membrane potential loss in human MGC-803 cells at 2.5 uM measured after 24 hrs by fluorescence method; settings: Mitochondria
# SGC-7901 [3] = assay: Induction of apoptosis in human SGC-7901 cells assessed as early apoptotic cells at 2.5 uM measure after 24 hrs by Annexin-PI staining based Flowcytometry method (reference value: 2.68%); type: functional
# MGC-803 [4] = assay: Induction of apoptosis in human MGC-803 cells assessed as viable cells at 0.625 uM measure after 24 hrs by Annexin-PI staining based Flowcytometry method (reference value: 80%); type: functional; settings: read-out: Activity
# MGC-803 [5] = assay: Induction of apoptosis in human MGC-803 cells assessed as necrotic cells at 0.625 uM measure after 24 hrs by Annexin-PI staining based Flowcytometry method (reference value: 3.13%); type: functional
# MGC-803 [6] = assay: Inhibition of cell proliferation in human MGC-803 cells at 10 uM measured by SRB assay; type: functional, cell-based; settings: time 72.0 hrs
# MGC-803 [7] = assay: Antiproliferative activity against human MGC-803 cells assessed as inhibition of cell growth at 10 uM measured after 72 hrs by SRB assay relative to control; type: functional
# SGC-7901 [8] = assay: Induction of apoptosis in human SGC-7901 cells assessed as late apoptotic cells at 1.25 uM measure after 24 hrs by Annexin-PI staining based Flowcytometry method (reference value: 1.29%); type: functional
# HGC-27 = assay: Antiproliferative activity against human HGC-27 cells assessed as inhibition of cell growth at measured after 72 hrs by SRB assay; type: functional
# SGC-7901 [9] = assay: Induction of apoptosis in human SGC-7901 cells assessed as early apoptotic cells at 5 uM measure after 24 hrs by Annexin-PI staining based Flowcytometry method (reference value: 2.68%); type: functional
# MKN-45 = assay: Antiproliferative activity against human MKN-45 cells assessed as inhibition of cell growth at measured after 72 hrs by SRB assay; type: functional
# MGC-803 [10] = assay: Antiproliferative activity in human MGC-803 cells assessed as inhibition of cell viability preincubated with 3-methyladenine followed by compound addition measured after 24 hrs by SRB staining method; type: functional, cell-based
# SGC-7901 [11] = assay: Induction of apoptosis in human SGC-7901 cells assessed as late apoptotic cells at 10 uM measure after 24 hrs by Annexin-PI staining based Flowcytometry method (reference value: 1.29%); type: functional
# SGC-7901 [12] = assay: Inhibition of cell proliferation in human SGC-7901 cells at 10 uM measured after 72 hrs by SRB assay; type: functional, cell-based
# MGC-803 [13] = assay: Induction of apoptosis in human MGC-803 cells assessed as early apoptotic cells at 5 uM measure after 24 hrs by Annexin-PI staining based Flowcytometry method (reference value: 9.8%); type: functional
# MGC-803 [14] = assay: Antiproliferative activity against human MGC-803 cells assessed as inhibition of cell growth incubated with compound for 1 to 24 hrs and measured 72 hrs after replacement of media by SRB assay; type: functional, cell-based; settings: time 1-24 hrs
# SGC-7901 [15] = assay: Induction of apoptosis in human SGC-7901 cells assessed as necrotic cells at 10 uM measure after 24 hrs by Annexin-PI staining based Flowcytometry method (reference value: 1.16%); type: functional
# MGC-803 [16] = assay: Induction of apoptosis in human MGC-803 cells assessed as accumulation of cleaved caspase 9 protein at 0.625 to 10 uM measured after 24 hrs by western blot assay; type: functional, cell-based; settings: dose 0.625-10 µM
# MGC-803 [17] = assay: Induction of apoptosis in human MGC-803 cells assessed as early apoptotic cells at 2.5 uM measure after 24 hrs by Annexin-PI staining based Flowcytometry method (reference value: 9.8%); type: functional
# SGC-7901 [18] = assay: Induction of apoptosis in human SGC-7901 cells assessed as viable cells at 10 uM measure after 24 hrs by Annexin-PI staining based Flowcytometry method (reference value: 94.9%); type: functional; settings: read-out: Activity
# MGC-803 [19] = assay: Induction of apoptosis in human MGC-803 cells assessed as increase in ROS production at 5 uM measured after 24 hrs by DCHF-DA staining based Flowcytometry method; type: functional, cell-based
# GES1 = assay: Cytotoxicity against human GES1 cells assessed as inhibition of cell growth at measured after 72 hrs by SRB assay; type: cell-based; settings: ges1, 72 h
# MGC-803 [20] = assay: Induction of mitochondrial membrane potential loss in human MGC-803 cells at 5 uM measured after 24 hrs by JC-1 staining based flow cytometry method (reference value: 0.344%); settings: Mitochondria
# EJ = assay: Antiproliferative activity against human EJ cells assessed as inhibition of cell growth at measured after 72 hrs by SRB assay; type: functional
# SGC-7901 [21] = assay: Induction of apoptosis in human SGC-7901 cells assessed as viable cells at 0.625 uM measure after 24 hrs by Annexin-PI staining based Flowcytometry method (reference value: 94.9%); type: functional; settings: read-out: Activity
# MGC-803 [22] = assay: Induction of apoptosis in human MGC-803 cells assessed as increase in accumulation of LC3B-2 measured after 24 hrs by western blot assay; type: functional, cell-based
# MGC-803 [23] = assay: Induction of apoptosis in human MGC-803 cells assessed as accumulation of cleaved PARP protein at 0.625 to 10 uM measured after 24 hrs by western blot assay; type: functional, cell-based; settings: dose 0.625-10 µM
# MGC-803 [24] = assay: Induction of apoptosis in human MGC-803 cells assessed as increase in ROS production preincubated for 1 hr with NAC followed by compound addition at 2.5 uM measured after 24 hrs by DCHF-DA staining based Flowcytometry method; type: functional, cell-based
# MGC-803 [25] = assay: Induction of apoptosis in human MGC-803 assessed by cleaved PARP levels incubated for 1 hr with Z-VAD-FMK followed by compound addition measured by western blot assay; type: functional, cell-based
# SGC-7901 [26] = assay: Antiproliferative activity against human SGC-7901 cells assessed as inhibition of cell growth at measured after 72 hrs by SRB assay; type: functional
# MGC-803 [27] = assay: Induction of apoptosis in human MGC-803 cells assessed as increase in accumulation of cleaved PARP measured after 24 hrs by western blot assay; type: functional, cell-based
# BGC-823 = assay: Antiproliferative activity against human BGC-823 cells assessed as inhibition of cell growth at measured after 72 hrs by SRB assay; type: functional
# MGC-803 [28] = assay: Induction of mitochondrial membrane potential loss in human MGC-803 cells at 2.5 uM measured after 24 hrs by JC-1 staining based flow cytometry method (reference value: 0.344%); settings: Mitochondria
# MGC-803 [29] = assay: Induction of apoptosis in human MGC-803 cells assessed as late apoptotic cells at 5 uM measure after 24 hrs by Annexin-PI staining based Flowcytometry method (reference value: 7.06%); type: functional
# SGC-7901 [30] = assay: Induction of apoptosis in human SGC-7901 cells assessed as necrotic cells at 1.25 uM measure after 24 hrs by Annexin-PI staining based Flowcytometry method (reference value: 1.16%); type: functional
# MGC-803 [31] = assay: Induction of apoptosis in human MGC-803 cells assessed as viable cells at 5 uM measure after 24 hrs by Annexin-PI staining based Flowcytometry method (reference value: 80%); type: functional; settings: read-out: Activity
# MGC-803 [32] = assay: Antiproliferative activity in human MGC-803 cells assessed as cell viability preincubated with chloroquine followed by compound addition measured after 24 hrs by SRB staining method; type: functional, cell-based
smiles,measurement,setting,value
Cc1cc(Nc2ccc(C(=O)/C=C/c3cccc(Br)n3)cc2)n2nc(SCc3nc4ccccc4[nH]3)nc2n1,viability at 1.25 µM,SGC-7901 [1],94.8%
same,Activity,MGC-803 [2],Active
same,Activity,SGC-7901 [3],5%
same,viability at 0.625 µM,MGC-803 [4],91.6%
same,Activity,MGC-803 [5],1.72%
same,inhibition,MGC-803 [6],Active
same,inhibition at 10 µM,MGC-803 [7],94.4%
same,Activity,SGC-7901 [8],1.37%
same,GI50,HGC-27,0.64 µM
same,Activity,SGC-7901 [9],16.7%
same,GI50,MKN-45,0.64 µM
same,inhibition,MGC-803 [10],Active
same,Activity,SGC-7901 [11],62.8%
same,inhibition,SGC-7901 [12],Active
same,Activity,MGC-803 [13],6.25%
same,inhibition,MGC-803 [14],Active
same,Activity,SGC-7901 [15],4.79%
same,Activity,MGC-803 [16],Active
same,Activity,MGC-803 [17],7.11%
same,viability at 10 µM,SGC-7901 [18],23.9%
same,Activity,MGC-803 [19],Active
same,Activity,GES1,Non-Toxic
same,Activity,MGC-803 [20],3.13%
same,GI50,EJ,> 10 µM
same,viability at 0.625 µM,SGC-7901 [21],94.2%
same,Activity,MGC-803 [22],Active
same,Activity,MGC-803 [23],Active
same,Activity,MGC-803 [24],inactive
same,Activity,MGC-803 [25],inactive
same,GI50,SGC-7901 [26],0.64 µM
same,Activity,MGC-803 [27],Active
same,GI50,BGC-823,0.64 µM
same,Activity,MGC-803 [28],3.25%
same,Activity,MGC-803 [29],15.4%
same,Activity,SGC-7901 [30],2.24%
same,viability at 5 µM,MGC-803 [31],73.8%
same,inhibition,MGC-803 [32],inactive
